Results published in US20190309272A1, “Genetically Modified Cell Lines Including a TP53 Modification and Methods of Use” (UNIVERSITY OF SOUTH CAROLINA, priority 2018, published 2019).
Where a name gives a salt, the structure may show the parent alone.

What was measured:
Format in all cases: cell-based, Human
Conditions in all cases: ten-day drug treatment, 156.25 nM to 10 μM, resazurin fluorescence
[1] = tested on: MCF7 WT Parental pool; assay: Drug screening, resazurin, MCF7 wild type parental pool
[2] = tested on: MCF7 TP53 KO 3.4 pool; assay: Drug screening, resazurin, TP53 KO 3.4 pool
[3] = tested on: MCF7 TP53 KO 5.6 pool; assay: Drug screening, resazurin, TP53 KO 5.6 pool

## C[C@]12CC[C@@H]3c4ccc(OC(=O)N(CCCl)CCCl)cc4CC[C@H]3[C@@H]1CC[C@@H]2OP(=O)(O)O [Estramustine Phosphate Sodium]
[1]
  MCF7 WT Parental pool (AUC): 9.864
[2]
  TP53 KO 3.4 pool (AUC): 9.491
[3]
  TP53 KO 5.6 pool (AUC): 9.348

## COc1cc([C@@H]2c3cc4c(cc3[C@@H](O[C@@H]3O[C@@H]5CO[C@@H](C)O[C@H]5[C@H](O)[C@H]3O)[C@H]3COC(=O)[C@H]23)OCO4)cc(OC)c1O [Etoposide]
[1]
  MCF7 WT Parental pool (AUC): 2.93
[2]
  TP53 KO 3.4 pool (AUC): 2.818
[3]
  TP53 KO 5.6 pool (AUC): 3.06

## CO[C@H]1C[C@@H]2CC[C@@H](C)[C@@](O)(O2)C(=O)C(=O)N2CCCC[C@H]2C(=O)O[C@H]([C@H](C)C[C@@H]2CC[C@@H](OCCO)[C@H](OC)C2)CC(=O)[C@H](C)/C=C(\C)[C@@H](O)[C@@H](OC)C(=O)[C@H](C)C[C@H](C)/C=C/C=C/C=C/1C [Everolimus]
[1]
  MCF7 WT Parental pool (AUC): 4.699
[2]
  TP53 KO 3.4 pool (AUC): 2.251
[3]
  TP53 KO 5.6 pool (AUC): 3.834

## O=c1[nH]c(=O)n([C@H]2C[C@H](O)[C@@H](CO)O2)cc1F [Floxuridine]
[1]
  MCF7 WT Parental pool (AUC): 2.391
[2]
  TP53 KO 3.4 pool (AUC): 1.85
[3]
  TP53 KO 5.6 pool (AUC): 1.997

## Nc1nc(F)nc2c1ncn2[C@@H]1O[C@H](COP(=O)(O)O)[C@@H](O)[C@@H]1O [FludarabinePhosphate]
[1]
  MCF7 WT Parental pool (AUC): 8.551
[2]
  TP53 KO 3.4 pool (AUC): 8.135
[3]
  TP53 KO 5.6 pool (AUC): 7.936

## C[C@]12CC[C@@H]3c4ccc(O)cc4C[C@@H](CCCCCCCCC[S+]([O-])CCCC(F)(F)C(F)(F)F)[C@H]3[C@@H]1CC[C@@H]2O (stereo partly drawn) [Fulvestrant]
[1]
  MCF7 WT Parental pool (AUC): 4.6
[2]
  TP53 KO 3.4 pool (AUC): 3.797
[3]
  TP53 KO 5.6 pool (AUC): 4.145

## COc1cc2ncnc(Nc3ccc(F)c(Cl)c3)c2cc1OCCCN1CCOCC1 [Gefintinib]
[1]
  MCF7 WT Parental pool (AUC): 8.974
[2]
  TP53 KO 3.4 pool (AUC): 7.676
[3]
  TP53 KO 5.6 pool (AUC): 8.242

## Nc1ccn([C@@H]2O[C@H](CO)[C@@H](O)C2(F)F)c(=O)n1 [Gemcitabine Hydrochloride]
[1]
  MCF7 WT Parental pool (AUC): 2.888
[2]
  TP53 KO 3.4 pool (AUC): 1.464
[3]
  TP53 KO 5.6 pool (AUC): 1.827

## NC(=O)NO [Hydroxyurea]
[1]
  MCF7 WT Parental pool (AUC): 9.246
[2]
  TP53 KO 3.4 pool (AUC): 8.069
[3]
  TP53 KO 5.6 pool (AUC): 8.455

## C=CC(=O)N1CCC[C@@H](n2nc(-c3ccc(Oc4ccccc4)cc3)c3c(N)ncnc32)C1 [Ibrutinib]
[1]
  MCF7 WT Parental pool (AUC): 6.35
[2]
  TP53 KO 3.4 pool (AUC): 5.166
[3]
  TP53 KO 5.6 pool (AUC): 5.711

## CC[C@H](Nc1ncnc2[nH]cnc12)c1nc2cccc(F)c2c(=O)n1-c1ccccc1 [Idelalisib]
[1]
  MCF7 WT Parental pool (AUC): 7.566
[2]
  TP53 KO 3.4 pool (AUC): 7.039
[3]
  TP53 KO 5.6 pool (AUC): 7.03

## CC(C)Cn1cnc2c(N)nc3ccccc3c21 [Imiquimod]
[1]
  MCF7 WT Parental pool (AUC): 9.496
[2]
  TP53 KO 3.4 pool (AUC): 9.359
[3]
  TP53 KO 5.6 pool (AUC): 9.449

## C/C(=C\c1csc(C)n1)[C@@H]1C[C@@H]2O[C@]2(C)CCC[C@H](C)[C@H](O)[C@@H](C)C(=O)C(C)(C)[C@@H](O)CC(=O)N1 [Ixabepilone]
[1]
  MCF7 WT Parental pool (AUC): 1.397
[2]
  TP53 KO 3.4 pool (AUC): 1.543
[3]
  TP53 KO 5.6 pool (AUC): 1.473

## CC(C)C[C@H](NC(=O)CNC(=O)c1cc(Cl)ccc1Cl)B(O)O [Ixazomib]
[1]
  MCF7 WT Parental pool (AUC): 0.719
[2]
  TP53 KO 3.4 pool (AUC): 0.7086
[3]
  TP53 KO 5.6 pool (AUC): 0.8766

## CS(=O)(=O)CCNCc1ccc(-c2ccc3ncnc(Nc4ccc(OCc5cccc(F)c5)c(Cl)c4)c3c2)o1 [Laptinib]
[1]
  MCF7 WT Parental pool (AUC): 5.364
[2]
  TP53 KO 3.4 pool (AUC): 5.619
[3]
  TP53 KO 5.6 pool (AUC): 5.857

## Nc1cccc2c1CN(C1CCC(=O)NC1=O)C2=O (stereo not drawn) [Lenalidomide]
[1]
  MCF7 WT Parental pool (AUC): 8.724
[2]
  TP53 KO 3.4 pool (AUC): 8.782
[3]
  TP53 KO 5.6 pool (AUC): 8.801

## O=NN(CCCl)C(=O)NC1CCCCC1 [Lomustine]
[1]
  MCF7 WT Parental pool (AUC): 9.62
[2]
  TP53 KO 3.4 pool (AUC): 9.629
[3]
  TP53 KO 5.6 pool (AUC): 9.491
